# Patent US20090281090A1, “BIOMARKERS FOR THE PREDICTION OF RESPONSIVENESS TO CLOZAPINE TREATMENT” (NOVARTIS AG, priority 2004, published 2009)
# Legend:
# [1] = tested on: patients with schizophrenia or schizoaffective disorders; test: InterSePT pharmacogenetic analysis: DAT1 3'UTR VNTR polymorphism vs Type 1 event / drug response; assay type: in vivo, human; details: for Adjusted Hazard Ratio (95% CI), association between VNTR polymorphism and Type 1 event: Cox model adjusted for age, gender, substance abuse, lifetime suicide attempts; for Unadjusted Hazard Ratio (95% CI), association between VNTR polymorphism and Type 1 event: Cox proportional hazards model
# Experimental: Association between a VNTR polymorphism in the 3′UTR region of the DAT1 gene and clozapine response. The objective of this EXAMPLE was to evaluate potential association between a VNTR polymorphism in the 3′UTR region of the Dopamine Transporter 1 gene (SLC6A3; DAT1) and drug response in the patients with schizophrenia or schizoaffective disorders treated with clozapine.
# A retrospective pharmacogenetic analysis was conducted in an attempt to evaluate potential association between a variable number of tandem repeats (VNTR) polymorphism in the 3′UTR region of the DAT1 gene and drug response in the patients with schizophrenia or schizoaffective disorders treated with clozapine.
# A multicenter, randomized, two-year study comparing the risk for suicidal behaviour in patients treated with clozapine vs olanzapine had already been conducted in patients with schizophrenia or schizoaffective disorders (see above). […] See, published PCT patent application WO 2004/074513.
# Genotyping. Four hundred and two samples from the patients enrolled in the InterSePT study (see above) were collected and genotyped for the VNTR polymorphism. A total of 402 subjects enrolled in the InterSePT study consented to Pharmacogenetics study in accordance with protocols approved by local ethics committees. 15 ml of blood were collected from the patients at the trial sites. The DNA was extracted by Covance (Indianapolis, USA) using the PUREGENE™ DNA Isolation Kit (D50K) according to the manufacturer's recommendations. VNTR genotyping was performed using PCR approach as described by Kidd (Kidd Laboratory, http://info.med.yale.edu/genetics/kkidd/SLC6A3—3VNTR.html). The sense and antisense PCR primers were 5′-GGTGTAGGGAACGGCCTGAGAG-3′ (SEQ ID NO:3) and 5′-CTTCCTGGAGGTCACGGCTCAAGG-3′ (SEQ ID NO:4), respectively. Approximately 100-200 ng of genomic DNA was needed for each assay. Thirty cycles of PCR were performed with the condition of 94° C. (30″), 62° C. (30″) and 72° C. (30″). PCR products were analyzed using 2% agarose gel.
# Clinical assessments. For the primary efficacy variable, time (in days, after randomization) to meeting any one of the following two criteria: (a) a significant suicide attempt; and (b) hospitalization due to imminent suicide risk. Type 1 Event is defined as combination of above two items. For secondary efficacy variables, the following were determined: (a) percentage of subjects with significant suicide attempts; (b) percentage of subjects with hospitalization due to imminent suicide risk; (c) change from baseline in the total score of the Positive and Negative Syndrome Scale (PANSS); (d) change from baseline in the Positive subtotal of PANSS; and (e) change from baseline in the Negative subtotal of PANSS.
# Statistic analysis. The SAS Version 8.2 for Windows package was used for statistical analysis. The continuous and dischotomous variables in demographic differences between the genotype groups were compared using non-parametric ANOVA and Fisher's exact test, respectively. The differential effects of genotypes on the time to Type 1 event were evaluated using log rank test. Age, gender, substance abuse, and lifetime suicide attempts were adjusted in further analysis using the Cox proportional hazards model.
# [2] = tested on: patients with schizophrenia or schizoaffective disorders; test: as above; assay type: in vivo, human
# [3] = All with schizoaffective disorder, genotype L/L (10≦/10≦)
# [4] = All with schizoaffective disorder, genotype S/L (10≦/9≧)
# [5] = All with schizoaffective disorder, genotype S/S (9≧/9≧)
# [6] = All with schizophrenia, genotype L/L (10≦/10≦)
# [7] = All with schizophrenia, genotype S/L (10≦/9≧)
# [8] = All with schizophrenia, genotype S/S (9≧/9≧)
# [9] = Caucasian, VNTR genotype 9≧/9≧, end of study
# [10] = Caucasian, VNTR genotype 10≦/9≧, end of study
# [11] = Caucasian, VNTR genotype 10≦/10≦, end of study
# [12] = Caucasians with schizoaffective disorder, genotype L/L (10≦/10≦)
# [13] = Caucasians with schizoaffective disorder, genotype S/L (10≦/9≧)
# [14] = Caucasians with schizoaffective disorder, genotype S/S (9≧/9≧)
# [15] = Caucasians with schizophrenia, genotype L/L (10≦/10≦)
# [16] = Caucasians with schizophrenia, genotype S/L (10≦/9≧)
# [17] = Caucasians with schizophrenia, genotype S/S (9≧/9≧)
# [18] = Whole race group, VNTR genotype 9≧/9≧, end of study
# [19] = Whole race group, VNTR genotype 10≦/9≧, end of study
# [20] = Whole race group, VNTR genotype 10≦/10≦, end of study
compound,measurement,setting,value
"CN1CCN(C2=Nc3cc(Cl)ccc3Nc3ccccc32)CC1 [Clozapine, 8-chloro-11-(4-methyl-1-piperazinyl)-5H-dibenzo[be][1,4]diazepine]",End point Type 1 event: No,[1]; [3],30 (75%) numbers of subjects (%)
same,End point Type 1 event: Yes,[1]; [3],10 (25%) numbers of subjects (%)
same,End point Type 1 event: No,[1]; [4],25 (83%) numbers of subjects (%)
same,End point Type 1 event: Yes,[1]; [4],5 (17%) numbers of subjects (%)
same,End point Type 1 event: No,[1]; [5],7 (70%) numbers of subjects (%)
same,End point Type 1 event: Yes,[1]; [5],3 (30%) numbers of subjects (%)
same,End point Type 1 event: No,[1]; [6],53 (87%) numbers of subjects (%)
same,End point Type 1 event: Yes,[1]; [6],8 (13%) numbers of subjects (%)
same,End point Type 1 event: No,[1]; [7],35 (87%) numbers of subjects (%)
same,End point Type 1 event: Yes,[1]; [7],5 (13%) numbers of subjects (%)
same,End point Type 1 event: No,[1]; [8],4 (50%) numbers of subjects (%)
same,End point Type 1 event: Yes,[1]; [8],4 (50%) numbers of subjects (%)
same,End point Type 1 event: No,[1]; [9],9 (56%) numbers of subjects (%)
same,End point Type 1 event: Yes,[1]; [9],7 (44%) numbers of subjects (%)
same,End point Type 1 event: No,[1]; [10],45 (85%) numbers of subjects (%)
same,End point Type 1 event: Yes,[1]; [10],8 (15%) numbers of subjects (%)
same,End point Type 1 event: No,[1]; [11],67 (83%) numbers of subjects (%)
same,End point Type 1 event: Yes,[1]; [11],14 (17%) numbers of subjects (%)
same,End point Type 1 event: No,[1]; [12],28 (76%) numbers of subjects (%)
same,End point Type 1 event: Yes,[1]; [12],9 (24%) numbers of subjects (%)
same,End point Type 1 event: No,[1]; [13],22 (85%) numbers of subjects (%)
same,End point Type 1 event: Yes,[1]; [13],4 (15%) numbers of subjects (%)
same,End point Type 1 event: No,[1]; [14],7 (70%) numbers of subjects (%)
same,End point Type 1 event: Yes,[1]; [14],3 (30%) numbers of subjects (%)
same,End point Type 1 event: No,[1]; [15],39 (89%) numbers of subjects (%)
same,End point Type 1 event: Yes,[1]; [15],5 (11%) numbers of subjects (%)
same,End point Type 1 event: No,[1]; [16],23 (85%) numbers of subjects (%)
same,End point Type 1 event: Yes,[1]; [16],4 (15%) numbers of subjects (%)
same,End point Type 1 event: No,[1]; [17],2 (33%) numbers of subjects (%)
same,End point Type 1 event: Yes,[1]; [17],4 (67%) numbers of subjects (%)
same,"Adjusted Hazard Ratio (95% CI), association between VNTR polymorphism and Type 1 event",[1]; Caucasians,0.296 (0.120-0.733)
same,"Unadjusted Hazard Ratio (95% CI), association between VNTR polymorphism and Type 1 event",[1]; Caucasians,0.307 (0.130-0.723)
same,End point Type 1 event: No,[1]; [18],11 (61%) numbers of subjects (%)
same,End point Type 1 event: Yes,[1]; [18],7 (39%) numbers of subjects (%)
same,End point Type 1 event: No,[1]; [19],60 (86%) numbers of subjects (%)
same,End point Type 1 event: Yes,[1]; [19],10 (14%) numbers of subjects (%)
same,End point Type 1 event: No,[1]; [20],83 (82%) numbers of subjects (%)
same,End point Type 1 event: Yes,[1]; [20],18 (18%) numbers of subjects (%)
same,patients calculated to be poor responders,[1]; according to the SLC6A3 genotypes,about 10%
same,"Adjusted Hazard Ratio (95% CI), association between VNTR polymorphism and Type 1 event",[1]; whole population,0.396 (0.167-0.936)
same,"Unadjusted Hazard Ratio (95% CI), association between VNTR polymorphism and Type 1 event",[1]; whole population,0.342 (0.148-0.788)
same,patients who experienced Type 1 events at the end of study,[2]; subpopulation with the two risk factors (VNTR in 3'-UTR and exon 9 polymorphism of SLC6A3),About 40%
same,patients who had Type 1 events at the end of study,[2]; subpopulation without the two risk factors (VNTR in 3'-UTR and exon 9 polymorphism of SLC6A3),15%
"Cc1cc2c(s1)Nc1ccccc1N=C2N1CCN(C)CC1 [Olanzapine, olanzapine]",End point Type 1 event: No,[1]; [3],22 (60%) numbers of subjects (%)
same,End point Type 1 event: Yes,[1]; [3],15 (40%) numbers of subjects (%)
same,End point Type 1 event: No,[1]; [4],22 (67%) numbers of subjects (%)
same,End point Type 1 event: Yes,[1]; [4],11 (33%) numbers of subjects (%)
same,End point Type 1 event: No,[1]; [5],4 (57%) numbers of subjects (%)
same,End point Type 1 event: Yes,[1]; [5],3 (43%) numbers of subjects (%)
same,End point Type 1 event: No,[1]; [6],50 (82%) numbers of subjects (%)
same,End point Type 1 event: Yes,[1]; [6],11 (18%) numbers of subjects (%)
same,End point Type 1 event: No,[1]; [7],32 (76%) numbers of subjects (%)
same,End point Type 1 event: Yes,[1]; [7],10 (24%) numbers of subjects (%)
same,End point Type 1 event: No,[1]; [8],8 (80%) numbers of subjects (%)
same,End point Type 1 event: Yes,[1]; [8],2 (20%) numbers of subjects (%)
same,End point Type 1 event: No,[1]; [9],6 (60%) numbers of subjects (%)
same,End point Type 1 event: Yes,[1]; [9],4 (40%) numbers of subjects (%)
same,End point Type 1 event: No,[1]; [10],45 (76%) numbers of subjects (%)
same,End point Type 1 event: Yes,[1]; [10],14 (24%) numbers of subjects (%)
same,End point Type 1 event: No,[1]; [11],59 (76%) numbers of subjects (%)
same,End point Type 1 event: Yes,[1]; [11],19 (24%) numbers of subjects (%)
same,End point Type 1 event: No,[1]; [12],22 (67%) numbers of subjects (%)
same,End point Type 1 event: Yes,[1]; [12],11 (33%) numbers of subjects (%)
same,End point Type 1 event: No,[1]; [13],21 (75%) numbers of subjects (%)
same,End point Type 1 event: Yes,[1]; [13],7 (25%) numbers of subjects (%)
same,End point Type 1 event: No,[1]; [14],3 (50%) numbers of subjects (%)
same,End point Type 1 event: Yes,[1]; [14],3 (50%) numbers of subjects (%)
same,End point Type 1 event: No,[1]; [15],37 (82%) numbers of subjects (%)
same,End point Type 1 event: Yes,[1]; [15],8 (18%) numbers of subjects (%)
same,End point Type 1 event: No,[1]; [16],24 (77%) numbers of subjects (%)
same,End point Type 1 event: Yes,[1]; [16],7 (23%) numbers of subjects (%)
same,End point Type 1 event: No,[1]; [17],3 (75%) numbers of subjects (%)
same,End point Type 1 event: Yes,[1]; [17],1 (25%) numbers of subjects (%)
same,"Adjusted Hazard Ratio (95% CI), association between VNTR polymorphism and Type 1 event",[1]; Caucasians,0.542 (0.185-1.590)
same,"Unadjusted Hazard Ratio (95% CI), association between VNTR polymorphism and Type 1 event",[1]; Caucasians,0.548 (0.194-1.547)
same,End point Type 1 event: No,[1]; [18],12 (71%) numbers of subjects (%)
same,End point Type 1 event: Yes,[1]; [18],5 (29%) numbers of subjects (%)
same,End point Type 1 event: No,[1]; [19],54 (72%) numbers of subjects (%)
same,End point Type 1 event: Yes,[1]; [19],21 (28%) numbers of subjects (%)
same,End point Type 1 event: No,[1]; [20],72 (73%) numbers of subjects (%)
same,End point Type 1 event: Yes,[1]; [20],26 (27%) numbers of subjects (%)
same,"Adjusted Hazard Ratio (95% CI), association between VNTR polymorphism and Type 1 event",[1]; whole population,0.824 (0.317-2.138)
same,"Unadjusted Hazard Ratio (95% CI), association between VNTR polymorphism and Type 1 event",[1]; whole population,0.886 (0.353-2.225)
